# pIC50: −log10 of the molar value.
# How the values were obtained:
# Escherichia coli [1] = experiment: Bactericidal activity against Escherichia coli ATCC BAA-196 incubated for 24 hrs followed by transferring to freshly prepared broth medium and measured after 24 hrs by broth microdilution assay; type: functional; details: time 48 hrs
# Neutrophil = experiment: Immunomodulatory activity in human neutrophils infected with bacteria assessed as increase in bacterial killing by measuring reduced NBT incubated for 30 mins by NBT dye based spectrophotometry; type: functional; parameters: concentration or dose not given beside the values; details: 0.5 h
# Candida albicans [2] = experiment: Fungicidal activity against Candida albicans ATCC 10231 incubated for 24 hrs followed by transferring to freshly prepared broth medium and measured after 24 hrs by broth microdilution assay; type: functional; details: time 48 hrs
# Staphylococcus aureus [3] = experiment: Antibacterial activity against multidrug resistant Staphylococcus aureus ATCC 33591 assessed as reduction in bacterial growth incubated for 1 day by paper disk diffusion method; type: functional; details: ATCC 33591, 24 h
# Enterococcus faecalis [4] = experiment: Bactericidal activity against Enterococcus faecalis ATCC 29212 incubated for 24 hrs followed by transferring to freshly prepared broth medium and measured after 24 hrs by broth microdilution assay; type: functional; details: time 48 hrs
# Candida albicans [5] = experiment: Antifungal activity against Candida albicans ATCC 10231 assessed as diameter of inhibition zone at 0.5 mg/ml incubated for 24 hrs by agar diffusion method; type: functional; details: read-out: DIZ
# Staphylococcus aureus [6] = experiment: Antibacterial activity against multidrug resistant Staphylococcus aureus ATCC 43300 assessed as reduction in bacterial growth incubated for 1 day by paper disk diffusion method; type: functional; details: ATCC 43300, 24 h
# Salmonella typhimurium [7] = experiment: Antibacterial activity against Salmonella typhi ATCC 6539 assessed as reduction in bacterial growth incubated for 1 day by paper disk diffusion method; type: functional, Salmonella enterica subsp. enterica serovar Typhimurium; details: Salmonella enterica, ATCC 6539, 24 h
# Escherichia coli [8] = experiment: Antibacterial activity against Escherichia coli ATCC 25922 assessed as reduction in bacterial growth incubated for 1 day by paper disk diffusion method; type: functional; details: ATCC 25922, 24 h
# Staphylococcus aureus [9] = experiment: Antibacterial activity against multidrug resistant Staphylococcus aureus ATCC 43300 assessed as diameter of inhibition zone at 0.5 mg/ml incubated for 24 hrs by agar diffusion method; type: functional; details: read-out: DIZ
# DNA gyrase = DNA gyrase (Staphylococcus aureus, UniProt P0A0K8+P20831); experiment: Inhibition of Staphylococcus aureus DNA gyrase using relaxed pBR322 DNA as substrate incubated for 45 mins by agarose gel electrophoresis method; type: protein-complex assay
# Sequence of DNA gyrase (P0A0K8 whole entry, the tested form may be a part): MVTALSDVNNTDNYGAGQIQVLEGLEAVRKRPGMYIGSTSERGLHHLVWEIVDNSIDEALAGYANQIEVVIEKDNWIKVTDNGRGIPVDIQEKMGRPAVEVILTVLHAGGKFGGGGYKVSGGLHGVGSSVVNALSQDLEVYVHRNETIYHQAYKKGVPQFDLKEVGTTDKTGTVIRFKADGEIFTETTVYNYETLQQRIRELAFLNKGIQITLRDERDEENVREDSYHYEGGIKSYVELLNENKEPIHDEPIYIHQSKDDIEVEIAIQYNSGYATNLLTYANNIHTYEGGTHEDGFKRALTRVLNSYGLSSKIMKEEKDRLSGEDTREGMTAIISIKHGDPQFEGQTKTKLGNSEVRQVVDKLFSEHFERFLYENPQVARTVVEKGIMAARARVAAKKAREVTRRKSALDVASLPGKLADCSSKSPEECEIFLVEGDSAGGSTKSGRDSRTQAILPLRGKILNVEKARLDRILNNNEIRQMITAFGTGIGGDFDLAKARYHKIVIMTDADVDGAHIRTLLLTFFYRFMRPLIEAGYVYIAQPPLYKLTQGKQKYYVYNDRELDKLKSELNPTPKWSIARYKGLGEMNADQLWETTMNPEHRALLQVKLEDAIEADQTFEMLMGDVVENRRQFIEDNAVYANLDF
# Sequence of DNA gyrase (P20831 whole entry, the tested form may be a part): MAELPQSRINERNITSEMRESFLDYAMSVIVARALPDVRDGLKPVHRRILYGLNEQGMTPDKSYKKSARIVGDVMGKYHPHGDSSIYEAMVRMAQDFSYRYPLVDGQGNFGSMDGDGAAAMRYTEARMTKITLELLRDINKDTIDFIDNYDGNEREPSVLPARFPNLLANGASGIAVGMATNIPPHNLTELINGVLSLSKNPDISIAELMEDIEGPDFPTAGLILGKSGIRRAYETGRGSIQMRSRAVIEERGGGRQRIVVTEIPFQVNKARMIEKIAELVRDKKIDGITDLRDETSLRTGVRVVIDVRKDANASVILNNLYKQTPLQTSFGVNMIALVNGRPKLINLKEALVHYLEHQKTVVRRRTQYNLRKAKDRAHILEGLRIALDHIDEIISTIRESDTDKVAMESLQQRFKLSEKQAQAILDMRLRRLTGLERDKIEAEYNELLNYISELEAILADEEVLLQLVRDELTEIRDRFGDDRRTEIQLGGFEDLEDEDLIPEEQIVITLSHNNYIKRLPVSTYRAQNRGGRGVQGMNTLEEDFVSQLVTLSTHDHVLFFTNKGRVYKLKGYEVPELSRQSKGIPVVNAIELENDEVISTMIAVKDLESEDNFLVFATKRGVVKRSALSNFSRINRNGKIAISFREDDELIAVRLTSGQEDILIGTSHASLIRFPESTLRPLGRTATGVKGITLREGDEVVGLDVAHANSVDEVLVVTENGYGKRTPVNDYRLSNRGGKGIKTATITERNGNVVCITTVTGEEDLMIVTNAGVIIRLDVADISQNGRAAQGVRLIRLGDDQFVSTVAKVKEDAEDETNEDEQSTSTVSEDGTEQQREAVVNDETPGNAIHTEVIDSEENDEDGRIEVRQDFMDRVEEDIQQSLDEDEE
# Enterococcus faecalis [10] = experiment: Antibacterial activity against Enterococcus faecalis ATCC 29212 assessed as reduction in bacterial growth incubated for 1 day by paper disk diffusion method; type: functional; details: ATCC 29212, 24 h
# Staphylococcus aureus [11] = experiment: Bactericidal activity against Staphylococcus aureus ATCC 33591 incubated for 24 hrs followed by transferring to freshly prepared broth medium and measured after 24 hrs by broth microdilution assay; type: functional; details: time 48 hrs
# Escherichia coli [12] = experiment: Bactericidal activity against Escherichia coli ATCC 25922 incubated for 24 hrs followed by transferring to freshly prepared broth medium and measured after 24 hrs by broth microdilution assay; type: functional; details: time 48 hrs
# Staphylococcus aureus [13] = experiment: Antibacterial activity against Staphylococcus aureus ATCC 29213 assessed as diameter of inhibition zone at 0.5 mg/ml incubated for 24 hrs by agar diffusion method; type: functional; details: read-out: DIZ
# Staphylococcus aureus [14] = experiment: Bactericidal activity against Staphylococcus aureus ATCC 43300 incubated for 24 hrs followed by transferring to freshly prepared broth medium and measured after 24 hrs by broth microdilution assay; type: functional; details: time 48 hrs
# Aspergillus brasiliensis [15] = experiment: Antifungal activity against Aspergillus brasiliensis ATCC 16404 assessed as diameter of inhibition zone at 0.5 mg/ml incubated for 72 hrs by agar diffusion method; type: functional; details: read-out: DIZ
# Pseudomonas aeruginosa [16] = experiment: Antibacterial activity against multidrug resistant Pseudomonas aeruginosa ATCC BAA-2111 assessed as diameter of inhibition zone at 0.5 mg/ml incubated for 24 hrs by agar diffusion method; type: functional; details: read-out: DIZ
# Candida albicans [17] = experiment: Antifungal activity against Candida albicans ATCC 10231 assessed as reduction in bacterial growth incubated for 1 day by paper disk diffusion method; type: functional; details: ATCC 10231, 24 h
# Staphylococcus aureus [18] = experiment: Bactericidal activity against Staphylococcus aureus ATCC 29213 incubated for 24 hrs followed by transferring to freshly prepared broth medium and measured after 24 hrs by broth microdilution assay; type: functional; details: time 48 hrs
# Staphylococcus aureus [19] = experiment: Antibacterial activity against Staphylococcus aureus ATCC 29213 assessed as reduction in bacterial growth incubated for 1 day by paper disk diffusion method; type: functional; details: ATCC 29213, 24 h
# Pseudomonas aeruginosa [20] = experiment: Bactericidal activity against Pseudomonas aeruginosa ATCC BAA-2111 incubated for 24 hrs followed by transferring to freshly prepared broth medium and measured after 24 hrs by broth microdilution assay; type: functional; details: time 48 hrs
# Escherichia coli [21] = experiment: Antibacterial activity against Escherichia coli ATCC 25922 assessed as diameter of inhibition zone at 0.5 mg/ml incubated for 24 hrs by agar diffusion method; type: functional; details: read-out: DIZ
# Escherichia coli [22] = experiment: Antibacterial activity against multidrug resistant Escherichia coli ATCC BAA-196 assessed as reduction in bacterial growth incubated for 1 day by paper disk diffusion method; type: functional; details: ATCC BAA-196, 24 h
# Staphylococcus aureus [23] = experiment: Antibacterial activity against multidrug resistant Staphylococcus aureus ATCC 33591 assessed as diameter of inhibition zone at 0.5 mg/ml incubated for 24 hrs by agar diffusion method; type: functional; details: read-out: DIZ
# Enterococcus faecalis [24] = experiment: Antibacterial activity against Enterococcus faecalis ATCC 29212 assessed as diameter of inhibition zone at 0.5 mg/ml incubated for 24 hrs by agar diffusion method; type: functional; details: read-out: DIZ
# Aspergillus brasiliensis [25] = experiment: Antifungal activity against Aspergillus brasiliensis ATCC 16404 assessed as reduction in bacterial growth incubated for 3 days by paper disk diffusion method; type: functional; details: ATCC 16404, 72 h, time 3 day
# Escherichia coli [26] = experiment: Antibacterial activity against multidrug resistant Escherichia coli ATCC BAA-196 assessed as diameter of inhibition zone at 0.5 mg/ml incubated for 24 hrs by agar diffusion method; type: functional; details: read-out: DIZ
# Salmonella typhimurium [27] = experiment: Antibacterial activity against Salmonella typhi ATCC 6539 assessed as diameter of inhibition zone at 0.5 mg/ml incubated for 24 hrs by agar diffusion method; type: functional, Salmonella enterica subsp. enterica serovar Typhimurium; details: Salmonella enterica, read-out: DIZ
# Salmonella typhimurium [28] = experiment: Bactericidal activity against Salmonella typhi ATCC 6539 incubated for 24 hrs followed by transferring to freshly prepared broth medium and measured after 24 hrs by broth microdilution assay; type: functional, Salmonella enterica subsp. enterica serovar […]; details: Salmonella enterica, time 48 hrs
# Aspergillus brasiliensis [29] = experiment: Fungicidal activity against Aspergillus brasiliensis ATCC 16404 incubated for 72 hrs followed by transferring to freshly prepared broth medium and measured after 24 hrs by broth microdilution assay; type: functional; details: time 96 hrs
# Pseudomonas aeruginosa [30] = experiment: Antibacterial activity against multidrug resistant Pseudomonas aeruginosa ATCC BAA-2111 assessed as reduction in bacterial growth incubated for 1 day by paper disk diffusion method; type: functional; details: ATCC BAA-2111, 24 h
SMILES,MBC (Escherichia coli [1]) [µg/mL],Activity (Neutrophil) [%],MFC (Candida albicans [2]) [µg/mL],MIC (Staphylococcus aureus [3]) [µg/mL],MBC (Enterococcus faecalis [4]) [µg/mL],zone of inhibition at 500 µg/mL (Candida albicans [5]) [mm],MIC (Staphylococcus aureus [6]) [µg/mL],MIC (Salmonella typhimurium [7]) [µg/mL],MIC (Escherichia coli [8]) [µg/mL],zone of inhibition at 500 µg/mL (Staphylococcus aureus [9]) [mm],pIC50 (DNA gyrase),MIC (Enterococcus faecalis [10]) [µg/mL],MBC (Staphylococcus aureus [11]) [µg/mL],MBC (Escherichia coli [12]) [µg/mL],zone of inhibition at 500 µg/mL (Staphylococcus aureus [13]) [mm],MBC (Staphylococcus aureus [14]) [µg/mL],zone of inhibition at 500 µg/mL (Aspergillus brasiliensis [15]) [mm],zone of inhibition at 500 µg/mL (Pseudomonas aeruginosa [16]) [mm],MIC (Candida albicans [17]) [µg/mL],MBC (Staphylococcus aureus [18]) [µg/mL],also measured
CCOC(=O)C1=C(N)OC(c2ccccc2)=C(C(C)=O)C12C(=O)Nc1ccc(S(=O)(=O)N3CCOCC3)cc12 (centres undefined),6.24,95.6,24.9,3.9,25,24,3.9,35.5,6.25,23,4.70,12.5,7.8,12.5,23,7.8,21,25,17.8,81.2,MIC (Staphylococcus aureus [19]): 62.5 µg/mL; MBC (Pseudomonas aeruginosa [20]): 5.2 µg/mL; zone of inhibition at 500 µg/mL (Escherichia coli [21]): 25 mm; MIC (Escherichia coli [22]): 3.9 µg/mL; zone of inhibition at 500 µg/mL (Staphylococcus aureus [23]): 24 mm; zone of inhibition at 500 µg/mL (Enterococcus faecalis [24]): 25 mm; MIC (Aspergillus brasiliensis [25]): 35.5 µg/mL; zone of inhibition at 500 µg/mL (Escherichia coli [26]): 24 mm; zone of inhibition at 500 µg/mL (Salmonella typhimurium [27]): 23 mm; MBC (Salmonella typhimurium [28]): 49.8 µg/mL; MFC (Aspergillus brasiliensis [29]): 71.1 µg/mL; MIC (Pseudomonas aeruginosa [30]): 2.6 µg/mL
CC(=O)C1=C(c2ccccc2)OC(N)=C(C#N)C12C(=O)Nc1ccc(S(=O)(=O)N3CCCCC3)cc12 (centres undefined),1.55,972,31.2,0.78,43.7,23,0.97,62.5,17.8,25,4.74,31.5,1.56,28.4,24,1.94,19,25,15.6,58.6,MIC (Staphylococcus aureus [19]): 35.5 µg/mL; MBC (Pseudomonas aeruginosa [20]): 3.9 µg/mL; zone of inhibition at 500 µg/mL (Escherichia coli [21]): 22 mm; MIC (Escherichia coli [22]): 0.97 µg/mL; zone of inhibition at 500 µg/mL (Staphylococcus aureus [23]): 26 mm; zone of inhibition at 500 µg/mL (Enterococcus faecalis [24]): 23 mm; MIC (Aspergillus brasiliensis [25]): 88.3 µg/mL; zone of inhibition at 500 µg/mL (Escherichia coli [26]): 27 mm; zone of inhibition at 500 µg/mL (Salmonella typhimurium [27]): 22 mm; MBC (Salmonella typhimurium [28]): 87.5 µg/mL; MFC (Aspergillus brasiliensis [29]): 150 µg/mL; MIC (Pseudomonas aeruginosa [30]): 1.95 µg/mL

# — ChEMBL document CHEMBL4680155, “One-pot synthesis and molecular docking of some new spiropyranindol-2-one derivatives as immunomodulatory agents and in vitro antimicrobial potential with DNA gyrase inhibitor” (Eur J Med Chem, 2020)
